Assay results as given in ChEMBL document CHEMBL1201862, “PubChem BioAssay data set” (2004).
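Each compound was tested at five concentrations against cells in 96-well plates for 48 hours. Abbreviation: GI50, concentration required for 50% inhibition of growth.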 Calls of active or inactive are those of the source. Cut-off read from the data, not from the text of the source: active = GI50 up to about 1.1 µM and inactive = higher.

Key:
Experiment in all cases: NCI-60 cell line screen, 48 h
SF-539 = tested on: SF-539
OVCAR-5 = tested on: OVCAR-5
786-0 = tested on: 786-0
NCI-H460 = tested on: NCI-H460
UACC-257 = tested on: UACC-257
A549 = tested on: A549
OVCAR-3 = tested on: OVCAR-3
NCI-H522 = tested on: NCI-H522
RXF 393 = tested on: RXF 393
SK-MEL-28 = tested on: SK-MEL-28
SF-268 = tested on: SF-268
HCC 2998 = tested on: HCC 2998
SK-OV-3 = tested on: SK-OV-3
K562 = tested on: K562
CAKI-1 = tested on: CAKI-1
IGROV-1 = tested on: IGROV-1
SR = tested on: SR

Row | Structure (SMILES) | GI50 (SF-539) | GI50 (OVCAR-5) | GI50 (786-0) | GI50 (NCI-H460) | GI50 (UACC-257) | GI50 (A549) | GI50 (OVCAR-3) | GI50 (NCI-H522) | GI50 (RXF 393) | GI50 (SK-MEL-28) | GI50 (SF-268) | GI50 (HCC 2998) | GI50 (SK-OV-3) | GI50 (K562) | GI50 (CAKI-1) | GI50 (IGROV-1) | GI50 (SR)
1 | O=C1OC2CCCC[C@@H]2C2C[C@]34CCCCC3[C@@H](C(=O)O4)C12 (some centres not stated) | > 100 µM (inactive) | > 100 µM (inactive) | > 100 µM (inactive) | > 100 µM (inactive) | > 100 µM (inactive) | > 100 µM (inactive) | > 100 µM (inactive) | > 100 µM (inactive) | > 100 µM (inactive) | > 100 µM (inactive) | > 100 µM (inactive) | > 100 µM (inactive) | > 100 µM (inactive) | > 100 µM (inactive) | – | – | –
2 | CC(=O)OCC1OC(NC(=S)N/N=C2\CC(c3ccccc3)Oc3ccccc32)C(OC(C)=O)C(OC(C)=O)C1OC(C)=O (configuration not stated) | > 100 µM (inactive) | > 100 µM (inactive) | > 100 µM (inactive) | > 100 µM (inactive) | > 100 µM (inactive) | > 100 µM (inactive) | > 100 µM (inactive) | > 100 µM (inactive) | > 100 µM (inactive) | – | > 100 µM (inactive) | > 100 µM (inactive) | > 100 µM (inactive) | > 100 µM (inactive) | > 100 µM (inactive) | > 100 µM (inactive) | > 100 µM (inactive)
3 | O=C1OC(c2ccccc2)=N/C1=C/NC(Cc1ccc(O)cc1)C(=O)O (configuration not stated) | > 100 µM (inactive) | > 100 µM (inactive) | > 100 µM (inactive) | > 100 µM (inactive) | 73.5 µM (inactive) | > 100 µM (inactive) | > 100 µM (inactive) | > 100 µM (inactive) | > 100 µM (inactive) | > 100 µM (inactive) | > 100 µM (inactive) | > 100 µM (inactive) | > 100 µM (inactive) | > 100 µM (inactive) | > 100 µM (inactive) | – | –
4 | O=C(c1ccc(Cl)cc1)N(C(=S)N1CCN(c2ccccc2)CC1)c1ccccc1 | > 100 µM (inactive) | > 100 µM (inactive) | > 100 µM (inactive) | > 100 µM (inactive) | > 100 µM (inactive) | > 100 µM (inactive) | > 100 µM (inactive) | > 100 µM (inactive) | > 100 µM (inactive) | > 100 µM (inactive) | > 100 µM (inactive) | – | > 100 µM (inactive) | > 100 µM (inactive) | > 100 µM (inactive) | > 100 µM (inactive) | > 100 µM (inactive)
5 | O=C(CC(=O)C(=O)CC(=O)OCc1ccccc1)OCc1ccccc1 | 53.5 µM (inactive) | > 100 µM (inactive) | > 100 µM (inactive) | – | – | 60.8 µM (inactive) | – | 31.3 µM (inactive) | 75 µM (inactive) | 67.6 µM (inactive) | 32.3 µM (inactive) | > 100 µM (inactive) | > 100 µM (inactive) | 58.6 µM (inactive) | > 100 µM (inactive) | 78.3 µM (inactive) | 70.8 µM (inactive)
6 | CC(Cl)(/C=C/Cl)C(Cl)/C=C/C(Cl)(CCl)CBr (configuration not stated) | – | 16 µM (inactive) | 2.9 µM (inactive) | 3.15 µM (inactive) | 2.2 µM (inactive) | 15.2 µM (inactive) | 12.5 µM (inactive) | 1.45 µM (inactive) | 1.45 µM (inactive) | 2.24 µM (inactive) | 2.09 µM (inactive) | 14.6 µM (inactive) | 17.1 µM (inactive) | 1.65 µM (inactive) | 12.2 µM (inactive) | 8.71 µM (inactive) | 0.191 µM (active)
7 | O=C(CC(=O)N1N=C(N2c3ccccc3Sc3ccccc32)CC1c1ccccc1)Nc1ccc(Cl)cc1 (configuration not stated) | > 100 µM (inactive) | > 100 µM (inactive) | > 100 µM (inactive) | > 100 µM (inactive) | > 100 µM (inactive) | > 100 µM (inactive) | > 100 µM (inactive) | – | > 100 µM (inactive) | > 100 µM (inactive) | > 100 µM (inactive) | > 100 µM (inactive) | > 100 µM (inactive) | > 10 µM (inactive) | > 100 µM (inactive) | > 100 µM (inactive) | –
8 | O=C(Nc1nc2ncn(CC(COc3ccccc3)OC(=O)c3ccccc3)c2c(=O)[nH]1)c1ccccc1 (configuration not stated) | > 100 µM (inactive) | > 100 µM (inactive) | > 100 µM (inactive) | – | > 100 µM (inactive) | > 100 µM (inactive) | > 100 µM (inactive) | > 100 µM (inactive) | > 100 µM (inactive) | > 100 µM (inactive) | – | – | > 100 µM (inactive) | > 100 µM (inactive) | > 100 µM (inactive) | > 100 µM (inactive) | 58.5 µM (inactive)
9 | CCOC(=O)C1=C(C)N(Cc2ccccc2)C(C)=C(C(=O)OCC)C1c1ccccc1O | 27.7 µM (inactive) | > 100 µM (inactive) | 44.6 µM (inactive) | 42.3 µM (inactive) | 26.9 µM (inactive) | 29.2 µM (inactive) | 25.2 µM (inactive) | 25.6 µM (inactive) | 18.7 µM (inactive) | 19.2 µM (inactive) | 32.4 µM (inactive) | 44.8 µM (inactive) | 47.2 µM (inactive) | 33.4 µM (inactive) | 27.2 µM (inactive) | 25.5 µM (inactive) | 15.9 µM (inactive)
10 | C[N+]1(C)C/C(=C\c2ccccc2)C(=O)/C(=C/c2ccccc2)C1 | > 100 µM (inactive) | > 100 µM (inactive) | > 100 µM (inactive) | > 100 µM (inactive) | > 100 µM (inactive) | > 100 µM (inactive) | > 100 µM (inactive) | – | > 100 µM (inactive) | > 100 µM (inactive) | > 100 µM (inactive) | > 100 µM (inactive) | > 100 µM (inactive) | 62.2 µM (inactive) | – | > 100 µM (inactive) | 63 µM (inactive)
11 | O=C(O)c1oc2ccc([N+](=O)[O-])c3c2c1CCC3 | > 100 µM (inactive) | > 100 µM (inactive) | 98.9 µM (inactive) | > 100 µM (inactive) | > 100 µM (inactive) | > 100 µM (inactive) | > 100 µM (inactive) | > 100 µM (inactive) | > 100 µM (inactive) | > 100 µM (inactive) | 74.3 µM (inactive) | > 100 µM (inactive) | – | – | > 100 µM (inactive) | – | –
12 | COC(=O)C1(C(C)C)CCc2c(OC)ccc(OC)c2C1=O (configuration not stated) | > 100 µM (inactive) | > 100 µM (inactive) | > 100 µM (inactive) | > 100 µM (inactive) | > 100 µM (inactive) | > 100 µM (inactive) | > 100 µM (inactive) | > 100 µM (inactive) | – | > 100 µM (inactive) | > 100 µM (inactive) | > 100 µM (inactive) | > 100 µM (inactive) | > 100 µM (inactive) | > 100 µM (inactive) | > 100 µM (inactive) | –
13 | NCCNCCNCc1c2ccccc2c(CNCCNCCN)c2ccccc12 | 37.5 µM (inactive) | > 100 µM (inactive) | 38.6 µM (inactive) | 31.2 µM (inactive) | > 100 µM (inactive) | 79.3 µM (inactive) | > 100 µM (inactive) | – | 40.9 µM (inactive) | > 100 µM (inactive) | 69.5 µM (inactive) | 54 µM (inactive) | > 100 µM (inactive) | 25.4 µM (inactive) | > 100 µM (inactive) | 75 µM (inactive) | 31.3 µM (inactive)
14 | CN(C)CCNC(=O)c1cccc2nc3ccc4ccccc4c3nc12 | 0.0652 µM (active) | 0.21 µM (active) | 0.125 µM (active) | 0.0266 µM (active) | 0.212 µM (active) | 0.0481 µM (active) | 0.169 µM (active) | – | 0.0583 µM (active) | 0.29 µM (active) | 0.0592 µM (active) | 0.126 µM (active) | 0.144 µM (active) | 0.0931 µM (active) | 0.0518 µM (active) | 0.0817 µM (active) | –
15 | CC(=O)O/C(C)=C\C(=O)O/N=C(\N)c1ccc(C)cc1 | 20.6 µM (inactive) | > 100 µM (inactive) | 52 µM (inactive) | 29.6 µM (inactive) | 30.8 µM (inactive) | 40.4 µM (inactive) | 34.7 µM (inactive) | 21 µM (inactive) | 27.4 µM (inactive) | 19.6 µM (inactive) | 29.8 µM (inactive) | > 100 µM (inactive) | > 100 µM (inactive) | 19.6 µM (inactive) | > 100 µM (inactive) | 28.3 µM (inactive) | 20.5 µM (inactive)
16 | CSC1(C)CC2C(CC1N1CCCCC1)C2(C)C (configuration not stated) | > 100 µM (inactive) | > 100 µM (inactive) | > 100 µM (inactive) | > 100 µM (inactive) | > 100 µM (inactive) | > 100 µM (inactive) | > 100 µM (inactive) | – | – | > 100 µM (inactive) | > 100 µM (inactive) | > 100 µM (inactive) | > 100 µM (inactive) | > 100 µM (inactive) | – | > 100 µM (inactive) | –
17 | CSc1ccc2c(cc1=O)C(NC(=O)c1cc(O)c(OC(=O)O)c(O)c1)CCc1cc(O)c(O)c(O)c1-2 (configuration not stated) | 26.5 µM (inactive) | > 8.99 µM (inactive) | 34 µM (inactive) | 20.7 µM (inactive) | 31 µM (inactive) | 19.5 µM (inactive) | 18.2 µM (inactive) | 5.87 µM (inactive) | 25.9 µM (inactive) | 24.4 µM (inactive) | 19.8 µM (inactive) | > 89.9 µM (inactive) | > 89.9 µM (inactive) | 12.2 µM (inactive) | 19.3 µM (inactive) | 19.7 µM (inactive) | –
18 | COc1cc2c3c(c1OC)C1(C=CC(=O)C=C1)C[C@H]3N(C)CC2 [PRONUCIFERINE] | > 100 µM (inactive) | > 100 µM (inactive) | > 100 µM (inactive) | > 100 µM (inactive) | > 100 µM (inactive) | > 100 µM (inactive) | > 100 µM (inactive) | 74.3 µM (inactive) | 26 µM (inactive) | > 100 µM (inactive) | > 100 µM (inactive) | > 100 µM (inactive) | > 100 µM (inactive) | – | – | > 100 µM (inactive) | > 100 µM (inactive)
